Assay results reported in ChEMBL document CHEMBL3244320, “2-Acetylpyridine thiosemicarbazones. 1. A new class of potential antimalarial agents” (J Med Chem, 1979).

Tests used:
Format in all cases: organism-based
Conditions in all cases: in vivo, 144 h
Mus musculus [1] = assay: Toxicity in ICR/HA Swiss mouse infected with Plasmodium berghei KBG 173 assessed as mortality at 40 mg/kg, sc administered 72 hrs post infection measured for 6 days; parameters: dose 40 mg/kg, route subcutaneous
Mus musculus [2] = assay: Toxicity in ICR/HA Swiss mouse infected with Plasmodium berghei KBG 173 assessed as mortality at 160 mg/kg, sc administered 72 hrs post infection measured for 6 days; parameters: dose 160 mg/kg, route subcutaneous
Mus musculus [3] = assay: Toxicity in ICR/HA Swiss mouse infected with Plasmodium berghei KBG 173 assessed as mortality at 640 mg/kg, sc administered 72 hrs post infection measured for 6 days; parameters: dose 640 mg/kg, route subcutaneous

Measured: Activity

C/C(=N\NC(N)=S)c1ccccn1
Toxic: Mus musculus [1] | Mus musculus [2] | Mus musculus [3]
